Laboratory results: the supplement of paper PMC4977894
± gives the standard deviation of the averaged measurements.

Tests used:
[1] = test system: Homo sapiens (human subject panel, olfactory perception); test: perceived odor familiarity rating (rating 0-100); higher = more familiar
In short: (§1)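 For each molecule, 1 mL diluted in paraffin oil was sniffed at high and low concentrations by 55 healthy human subjects aged 18–50, with the six lowest performers excluded. Presentation order was randomized over ten visits of 100 stimuli. Subjects who reported smelling a stimulus moved a computerized slider from its starting position of 50, and positions were converted to a 0–100 scale. The familiarity, intensity and pleasantness ratings are averaged across subjects.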

[2] = test system: Homo sapiens (human subject panel, olfactory perception); test: perceived odor pleasantness rating (rating 0-100); higher = more pleasant
In short: as §1

[3] = test system: Homo sapiens (human subject panel, olfactory perception); test: perceived odor intensity rating (rating 0-100); higher = stronger perceived smell
In short: as §1

[4] = odor dilution in paraffin oil: 1/10
[5] = odor dilution in paraffin oil: 1/1,000
[6] = odor dilution in paraffin oil: 1/100,000
[7] = odor dilution in paraffin oil: 1/10,000,000

SMILES | perceived odor familiarity rating [1, 4] | perceived odor familiarity rating [1, 5] | perceived odor pleasantness rating [2, 4] | perceived odor pleasantness rating [2, 5] | perceived odor intensity rating [3, 4] | perceived odor intensity rating [3, 5] | perceived odor familiarity rating [1, 6] | perceived odor pleasantness rating [2, 6] | perceived odor intensity rating [3, 6] | perceived odor familiarity rating [1, 7] | perceived odor pleasantness rating [2, 7] | perceived odor intensity rating [3, 7]
CC(=O)OC1CC(C)CCC1C(C)C [L-Menthyl acetate (replicate)] | 56.9 ± 30 | 39.2 ± 30 | 61.6 ± 21 | 58.9 ± 18 | 59.6 ± 29 | 34.3 ± 28 |  |  |  |  |  | 
CC(=O)OC1CC(C)CCC1C(C)C [L-Menthyl acetate] | 57.8 ± 31 | 45.6 ± 25 | 61.5 ± 25 | 53.4 ± 23 | 63.7 ± 26 | 15.4 ± 24 |  |  |  |  |  | 
CSCC[C@H](N)C(=O)O [L-Methionine] | 45.7 ± 36 | 41.6 ± 30 | 18.4 ± 21 | 31.5 ± 25 | 78.9 ± 23 | 48.3 ± 34 |  |  |  |  |  | 
N[C@@H](Cc1ccccc1)C(=O)O [L-Phenylalanine] | 39.1 ± 28 | 33.7 ± 31 | 39.9 ± 28 | 44.3 ± 29 | 34.4 ± 33 | 30.1 ± 30 |  |  |  |  |  | 
O=C(O)[C@@H]1CCCN1 [L-Proline] | 45.3 ± 30 | 45.8 ± 35 | 27.9 ± 28 | 22.8 ± 24 | 81.4 ± 20 | 60.2 ± 31 |  |  |  |  |  | 
N[C@@H](Cc1ccc(O)cc1)C(=O)O [L-Tyrosine] |  | 37.4 ± 27 |  | 44 ± 23 |  | 30.7 ± 28 | 26.6 ± 26 | 44.1 ± 30 | 25.3 ± 33 |  |  | 
CC(C)[C@H](N)C(=O)O [L-Valine] | 39.1 ± 31 | 41.5 ± 34 | 40.9 ± 25 | 50.5 ± 24 | 42.1 ± 29 | 33.1 ± 33 |  |  |  |  |  | 
CCCCCCCCCCCC(=O)O [Lauric acid (replicate)] | 50.6 ± 32 | 34.1 ± 27 | 28.8 ± 22 | 35.4 ± 22 | 72.2 ± 25 | 36 ± 32 |  |  |  |  |  | 
CCCCCCCCCCCC(=O)O [Lauric acid] | 49.1 ± 34 | 37.4 ± 33 | 28.7 ± 20 | 45.8 ± 25 | 71.6 ± 27 | 25.3 ± 24 |  |  |  |  |  | 
CCCCCCCCCCCCOC(C)=O [Lauryl acetate] |  | 33.3 ± 27 |  | 43.5 ± 24 |  | 33 ± 30 | 36.6 ± 27 | 49.5 ± 26 | 23 ± 27 |  |  | 
CCCCCCCCCCCCO [Lauryl alcohol] | 50.1 ± 29 | 32 ± 30 | 35.8 ± 25 | 43 ± 26 | 64.6 ± 28 | 24.8 ± 31 |  |  |  |  |  | 
C=CC(C)(O)CCC=C(C)C (stereo not given) [Linalool] |  | 60.6 ± 32 |  | 74.6 ± 19 |  | 62.1 ± 26 | 39.9 ± 30 | 66 ± 23 | 32.6 ± 25 |  |  | 
C=CC(C)(CCC=C(C)C)OC(C)=O (stereo not given) [Linalyl acetate] |  | 39.3 ± 31 |  | 56.9 ± 24 |  | 29.8 ± 30 | 38.1 ± 31 | 44.5 ± 21 | 31.5 ± 30 |  |  | 
CCCCC/C=C\C/C=C\CCCCCCCC(=O)O [Linoleic acid (replicate)] | 46.6 ± 35 | 53.2 ± 30 | 20.4 ± 24 | 31.7 ± 20 | 91.6 ± 11 | 66.6 ± 26 |  |  |  |  |  | 
CCCCC/C=C\C/C=C\CCCCCCCC(=O)O [Linoleic acid] | 48.7 ± 34 | 41.2 ± 27 | 13.9 ± 15 | 31.2 ± 21 | 90.8 ± 13 | 64.8 ± 23 |  |  |  |  |  | 
CC(C)CC(=O)O[C@@H]1C[C@H](C)CC[C@H]1C(C)C [Menthyl isovalerate] |  | 39.5 ± 27 |  | 56.9 ± 25 |  | 33.9 ± 28 | 35 ± 33 | 49.4 ± 24 | 18.6 ± 24 |  |  | 
COC(=O)c1ccccc1OC [Methyl 2-methoxybenzoate] |  | 40.8 ± 31 |  | 48.1 ± 26 |  | 47.5 ± 31 | 37.5 ± 28 | 45.9 ± 25 | 20.6 ± 24 |  |  | 
CCCCCCC#CC(=O)OC [Methyl 2-nonynoate] |  | 61.9 ± 33 |  | 65 ± 27 |  | 71.1 ± 21 | 55.3 ± 28 | 58.5 ± 29 | 55.3 ± 30 |  |  | 

SMILES | perceived odor familiarity rating [1, 4] | perceived odor familiarity rating [1, 5] | perceived odor pleasantness rating [2, 4] | perceived odor pleasantness rating [2, 5] | perceived odor intensity rating [3, 4] | perceived odor intensity rating [3, 5] | perceived odor familiarity rating [1, 6] | perceived odor pleasantness rating [2, 6] | perceived odor intensity rating [3, 6] | perceived odor familiarity rating [1, 7] | perceived odor pleasantness rating [2, 7] | perceived odor intensity rating [3, 7]
COC(=O)CCSC [Methyl 3-(methylthio)propionate] |  |  |  |  |  |  | 31 ± 25 | 41 ± 21 | 25.6 ± 28 | 40.3 ± 32 | 43.2 ± 26 | 27.7 ± 30
COC(=O)CSC [Methyl (methylthio)acetate] |  | 45.8 ± 30 |  | 17.9 ± 24 |  | 81.7 ± 16 | 38.9 ± 32 | 37.7 ± 27 | 37.8 ± 31 |  |  | 
CCC(=O)OC [Methyl Propionate] |  | 48.6 ± 31 |  | 55.8 ± 27 |  | 38.7 ± 31 | 32.6 ± 29 | 55.7 ± 20 | 19 ± 23 |  |  | 
COC(=O)c1ccccc1N [Methyl anthranilate] |  | 61.8 ± 31 |  | 65.3 ± 24 |  | 74.6 ± 18 | 56.7 ± 30 | 64 ± 25 | 58.3 ± 30 |  |  | 
CC(=O)c1ccc2ccccc2c1 [Methyl beta-naphthyl ketone] | 58 ± 30 | 62.6 ± 27 | 54.4 ± 30 | 60.7 ± 25 | 78.8 ± 16 | 63.8 ± 26 |  |  |  |  |  | 
CCCC(=O)OC [Methyl butyrate] |  | 48.2 ± 29 |  | 32.9 ± 31 |  | 79.2 ± 19 | 45.1 ± 32 | 27.8 ± 25 | 42.8 ± 30 |  |  | 
CCCCCCCC(=O)OC [Methyl caprylate] |  | 46.9 ± 32 |  | 68.5 ± 23 |  | 47.9 ± 33 | 40.5 ± 26 | 50.1 ± 26 | 40.6 ± 29 |  |  | 
CCCCCCC(=O)OC [Methyl heptanoate] |  | 48.9 ± 33 |  | 58.8 ± 25 |  | 52.9 ± 30 | 39.5 ± 30 | 53 ± 24 | 21.7 ± 28 |  |  | 
C=C(C)C(=O)OC [Methyl methacrylate] |  | 45.7 ± 28 |  | 39.3 ± 25 |  | 55 ± 33 | 37 ± 26 | 47.4 ± 26 | 15.1 ± 22 |  |  | 
COC(=O)c1cccnc1 [Methyl nicotinate] | 37.2 ± 30 | 43.5 ± 30 | 38.4 ± 29 | 38.3 ± 24 | 71.6 ± 28 | 63 ± 26 |  |  |  |  |  | 
CCCCCCCCC(=O)OC [Methyl nonanoate] |  | 50.8 ± 30 |  | 57.8 ± 26 |  | 57 ± 28 | 45.9 ± 30 | 57.9 ± 24 | 28.8 ± 30 |  |  | 
COC(=O)Cc1ccccc1 [Methyl phenylacetate] |  | 54 ± 30 |  | 42.9 ± 30 |  | 69.1 ± 25 | 49.6 ± 30 | 42.3 ± 28 | 58.1 ± 30 |  |  | 
CS(C)(=O)=O [Methyl sulfone] | 51.6 ± 29 | 39.4 ± 28 | 61.1 ± 24 | 47.6 ± 20 | 42.4 ± 32 | 22.7 ± 25 |  |  |  |  |  | 
C[S+](C)[O-] [Methyl sulfoxide] | 41.7 ± 33 | 41.6 ± 29 | 36.7 ± 24 | 32.1 ± 26 | 50.7 ± 30 | 35.3 ± 31 |  |  |  |  |  | 
CCCC(=O)SC [Methyl thiobutyrate] |  | 50.2 ± 36 |  | 4.96 ± 12 |  | 92.4 ± 14 | 45.1 ± 32 | 16.2 ± 22 | 69.8 ± 26 |  |  | 
CCCCCC/C=C/C(=O)OC [Methyl trans-2-nonenoate] |  | 53.4 ± 27 |  | 50.3 ± 27 |  | 49.1 ± 27 | 37.1 ± 26 | 56.4 ± 17 | 20.3 ± 22 |  |  | 
CCCCC(=O)OC [Methyl valerate] |  | 55.1 ± 31 |  | 42.4 ± 31 |  | 65.2 ± 26 | 46.1 ± 28 | 48.8 ± 28 | 49.4 ± 30 |  |  | 
